# Experimental data taken from US20040024024A1, “Aromatic sulfone hydroxamates and their use as protease inhibitors” (priority 2001, published 2004).
# Target: T1, Human recombinant MMP-9 (Homo sapiens, UniProt P14780)
# T1 construct: made in house; host or cells: MMP-9-transfected HT1080 cells (spent media)
# Assay: In vitro MMP inhibition, Ki determination (fluorogenic substrate II)
# Format: biochemical
# Procedure, shortened: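 MMP-9 proenzyme purified from transfected HT1080 cell media, activated with APMA, trypsin or recombinant MMP-3; hydroxamates diluted in pH 7.5 Tris/NaCl/CaCl2 buffer. Cleavage of 4 μM MCA/Dpa substrate II followed by fluorescence (ex 330/em 420 nm), 1 h at room temperature. Ki from Morrison-equation fit, substrate at/below Km, uncorrected.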
# [1] = substrate (II) 4 μM, 1 hr room temperature, apparent Ki, values in parenthesis
# T1 sequence (P14780 107-707 limits assumed): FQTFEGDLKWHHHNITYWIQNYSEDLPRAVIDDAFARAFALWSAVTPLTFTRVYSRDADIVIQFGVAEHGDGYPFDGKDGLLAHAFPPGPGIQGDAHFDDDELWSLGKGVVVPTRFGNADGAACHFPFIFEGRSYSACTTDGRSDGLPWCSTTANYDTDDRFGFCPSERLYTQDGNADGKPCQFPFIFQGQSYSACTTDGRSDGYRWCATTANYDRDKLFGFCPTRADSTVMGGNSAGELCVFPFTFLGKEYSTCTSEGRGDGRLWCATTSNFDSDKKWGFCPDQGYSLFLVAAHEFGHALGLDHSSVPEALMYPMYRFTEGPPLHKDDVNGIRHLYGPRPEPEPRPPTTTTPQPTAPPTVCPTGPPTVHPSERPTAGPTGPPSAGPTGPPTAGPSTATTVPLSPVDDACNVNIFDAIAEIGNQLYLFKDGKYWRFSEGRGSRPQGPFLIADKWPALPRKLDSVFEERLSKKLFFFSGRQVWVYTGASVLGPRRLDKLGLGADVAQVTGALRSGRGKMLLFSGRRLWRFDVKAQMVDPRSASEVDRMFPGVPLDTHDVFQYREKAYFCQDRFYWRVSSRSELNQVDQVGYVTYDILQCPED
Ki (value in parentheses) [nM],Ki [1] [nM],SMILES
269,–,O=C(NCCSc1ccc(S(=O)(=O)C2(C(=O)NO)CCN(C3CC3)CC2)cc1)c1nc2ccccc2s1 [Example 541]
7.17,–,O=C(NO)C1(S(=O)(=O)c2ccc(OCCCOc3cccnc3)cc2)CCOCC1 [Example 560]
207,–,COCCN1CCC(C(=O)NO)(S(=O)(=O)c2ccc(OCCc3ccc(-c4ccc(C#N)cc4)cc3)cc2)CC1 [Example 543]
76.2,–,C#Cc1ccc(-c2cccc(CCCOc3ccc(S(=O)(=O)C4(C(=O)NO)CCN(CCOC)CC4)cc3)c2)cc1 [Example 646]
1270,–,COCCN1CCC(C(=O)NO)(S(=O)(=O)c2ccc(OCCc3cccc(-c4ccc(F)cc4F)c3)cc2)CC1 [Example 546]
2070,–,CCN1CCC(C(=O)NO)(S(=O)(=O)c2ccc(OCCCc3cccc(-c4ccc(Cl)cc4)c3)cc2)CC1 [Example 526]
–,499,COCCN1CCC(C(=O)NO)(S(=O)(=O)c2ccc(OCCc3cccc(-c4ccccc4)c3)cc2)CC1 [Example 45]
224,–,COCCN1CCC(C(=O)NO)(S(=O)(=O)c2ccc(OCCCc3cccc(-c4ccc(C#N)cc4)c3)cc2)CC1 [Example 514]
238,–,CCC(=O)c1cccc(CCCOc2ccc(S(=O)(=O)C3(C(=O)NO)CCOCC3)cc2)c1 [Example 528]
33.6,–,O=C(NO)C1(S(=O)(=O)c2ccc(OCCc3cccnc3)cc2)CCOCC1 [Example 557]
689,–,COCCN1CCC(C(=O)NO)(S(=O)(=O)c2ccc(OCCc3cccc(-c4ccccc4F)c3)cc2)CC1 [Example 540]
0.44,–,CCCCCCCOc1ccc(S(=O)(=O)C2(C(=O)NO)CCOCC2)cc1 [Example 507]
1320,–,O=C(NO)C1(S(=O)(=O)c2ccc(OCCc3ccc(-c4cccc(O)c4)cc3)cc2)CCOCC1 [Example 532]
2310,–,O=C(NO)C1(S(=O)(=O)c2ccc(OCCCc3ccc(F)c(-c4ccccc4)c3)cc2)CCOCC1 [Example 504]
–,617,COCCN1CCC(C(=O)NO)(S(=O)(=O)c2ccc(OCCCc3cccc(-c4ccc(F)c(F)c4)c3)cc2)CC1 [Example 52]
324,–,CCCc1ccc(CCCOc2ccc(S(=O)(=O)C3(C(=O)NO)CCOCC3)cc2)cn1 [Example 534]
57.6,–,O=C(NO)C1(S(=O)(=O)c2ccc(OCCCOc3cncnc3)cc2)CCOCC1 [Example 559]
1860,–,COCCN1CCC(C(=O)NO)(S(=O)(=O)c2ccc(OCCc3cccc(-c4ccc(Cl)cc4)c3)cc2)CC1 [Example 547]
923,–,COCCN1CCC(C(=O)NO)(S(=O)(=O)c2ccc(OCCc3cccc(-c4cccc(F)c4)c3)cc2)CC1 [Example 545]
117,–,COCCN1CCC(C(=O)NO)(S(=O)(=O)c2ccc(OCCc3cccc(-c4ccncc4)c3)cc2)CC1 [Example 538]
2.22,–,CCc1ccc(COc2ccc(S(=O)(=O)C3(C(=O)NO)CCOCC3)cc2)cn1 [Example 552]
30.4,–,Cc1ccc(NC(=O)CCCOc2ccc(S(=O)(=O)C3(C(=O)NO)CCOCC3)cc2)cc1I [Example 527]
786,–,O=C(NCCOc1ccc(S(=O)(=O)C2(C(=O)NO)CCOCC2)cc1)c1c[nH]c2ccccc12 [Example 562]
7.51,–,CCCc1ccc(COc2ccc(S(=O)(=O)C3(C(=O)NO)CCOCC3)cc2)cn1 [Example 550]
787,–,COCCN1CCC(C(=O)NO)(S(=O)(=O)c2ccc(OCCc3cccc(-c4ccc(F)cc4)c3)cc2)CC1 [Example 544]
85.5,–,COCCN1CCC(C(=O)NO)(S(=O)(=O)c2ccc(OCCc3cccc(-c4cccnc4)c3)cc2)CC1 [Example 539]
10.2,–,CCCC(=O)CCCOc1ccc(S(=O)(=O)C2(C(=O)NO)CCOCC2)cc1 [Example 505]
25.7,–,COCCN1CCC(C(=O)NO)(S(=O)(=O)c2ccc(OCCCc3cccc(-c4ccccc4F)c3)cc2)CC1 [Example 512]
1770,–,COCCN1CCC(C(=O)NO)(S(=O)(=O)c2ccc(OCCc3cccc(-c4ccc(F)c(F)c4)c3)cc2)CC1 [Example 549]
160,–,COCCN1CCC(C(=O)NO)(S(=O)(=O)c2ccc(OCCCc3cncc(-c4ccccc4)c3)cc2)CC1 [Example 508]
